Test results taken from patent US6566129B1, “Transformed cells useful for the control of pests” (University of Florida Research Foundation, Inc., priority 1999, dated 2003).
Square brackets hold non-standard residues; d marks the D form. Ends that are not written are not given here. Peptide text beside a SMILES is read from it.

What was measured:
Assay type in all cases: in vivo
[1] = tested on: trypsin biosynthesis; experiment: Effect of injected TMOF-R analogues on trypsin biosynthesis in Heliothis virescens (BApNA); conditions: 2nd instar larvae, 24 hours after injection
Protocol: Individual second instar larvae of H. virescens were injected with TMOF-R analogues (10 to 0.25 μg per larva) and maintained in separate plastic cups on artificial diet. Twenty-four hours after the injections 3 groups of larvae (3 per group) were assayed for trypsin biosynthesis using BApNA (trypsin specific substrate; Table 5).

[2] = tested on: Aedes aegypti larvae; experiment: Effect of feeding TMOF-R analogues on Aedes aegypti larvae (LC50); conditions: fed in microtiter plates with yeast particles for 5 to 6 days; read-out: LC50 (mM ± S.E.M.)
Protocol: TMOF analogues (5 to 8 amino acids in length, and polymers of these analogues) in which Arg was added at the C-terminus were evaluated to determine their effect on larval growth and development. A series of analogues were synthesized and tested by feeding them to mosquito larvae at concentrations of (0.5 to 5.0 mg/ml; Table 4). Concentrations of 2.0 to 0.065 mg/ml were used to feed mosquito larvae and calculate the Lethal Dose at 50% mortality (LD50; Table 4) of the TMOF analogues. […] In both cases larval death and trypsin biosynthesis inhibition was noted (Table 4 and 5). […] The advantage of using short analogues connected by Arg is that they can be digested in the gut into short TMOF analogues that can penetrate the midgut much faster than longer analogues.
Individual, newly hatched Aedes aegypti larvae were maintained in separate microtiter wells on a diet of autoclaved yeast (1 mg/ml). The diet was supplemented with TMOF analogues (Table 4). An identical number of larvae were maintained on yeast served as a control. […] All control groups survived and larval growth and development were normal. Larvae that were fed TMOF analogues had increased mortality, particularly when the larvae where fed the concentrations of the analogues higher than 2 mg/ml (Table 4).
Since larvae swallow only a small portion of the yeast particles that adsorbed the analogues it is assumed that approximately I to 20 ng are taken orally at the high concentrations. Using the various concentrations a lethal concentration that caused 50% mortality (LC50) for the mosquito larvae was calculated (Table 4). The results presented in Table 4 clearly indicate that the short TMOF-R analogues are very effective, especially the (DPAR)4 (SEQ ID NO. 61) polymer that is broken into 4 DPARs (SEQ ID NO. 60) in the gut.

[3] = tested on: Aedes aegypti larvae; experiment: Effect of TMOF and its analogue peptides on mosquito larvae (feeding, LD50); conditions: newly hatched larvae on autoclaved yeast 1 mg/ml, microtiter plates, 7 days
From the text: TMOF can traverse the gut epithelium, enter the hemolymph and bind a gut receptor (Borovsky, D. and F. Mahmood (1995) “Feeding the mosquito Aedes aegypti with TMOF and its analogs; effect on trypsin biosynthesis and egg development,” Regulatory Peptides57:273-281; Borovsky, et al. (1994) “Characterization and localization of mosquito-gut receptors for trypsin modulating oostatic factor using complementary peptide immunochemistry” FASEB J. 8:350-355.). […] To find out if truncated TMOF peptides have an effect on larval growth and development, a series of peptides were synthesized and tested by feeding them to mosquito larvae at concentrations of 0 to 5.0 mg/ml (Table 3). Individual, newly hatched Aedes aegypti larvae were maintained in separate microtiter wells on a diet of autoclaved yeast (1 mg/ml). The diet was supplemented with TMOF peptides (Table 3). An identical number of larvae maintained on yeast served as a control. […] All control groups survived and larval growth and development was normal. Since larvae swallow only a small portion of the yeast particles that adsorbed the peptides, it is assumed that approximately 1 to 20 ng are taken orally at the high concentrations.

Molecule	LD50 mM ± S.E.M. [3]	further results
YDPAR [YDPAR]		Inhibition (% ± S.E.M.) of trypsin biosynthesis ([1]; 0.5 μg/injection): 1 ± 0.07%; Inhibition (% ± S.E.M.) of trypsin biosynthesis ([1]; 1 μg/injection): 39 ± 2%; Inhibition (% ± S.E.M.) of trypsin biosynthesis ([1]; 10 μg/injection): 33.5 ± 9%; LC50 [2]: 0.12 ± 0.07 mM
C[C@H](NC(=O)[C@@H](N)Cc1ccc(O)cc1)C(=O)N1CCC[C@H]1C(=O)O [YAP] (H-Tyr-Ala-Pro-OH; N-terminus and C-terminus assumed)	2.3 ± 0.5 mM	
N[C@@H](Cc1ccc(O)cc1)C(=O)N[C@@H](CC(=O)O)C(=O)N[C@@H](Cc1ccccc1)C(=O)O [YDF] (H-Tyr-Asp-Phe-OH; N-terminus and C-terminus assumed)	0.97 ± 0.11 mM	
YDPLP [YDPLP]	1.5 ± 0.04 mM	
YEPAP [YEPAP]	0.35 ± 0.02 mM	
YAPAP [YAPAP]	0.54 ± 0.13 mM	
C[C@H](NC(=O)[C@@H]1CCCN1C(=O)[C@H](CC(=O)O)NC(=O)[C@H](N)Cc1ccc(O)cc1)C(=O)N1CCC[C@H]1C(=O)O [(D)YDPAP] (H-[dY]DPAP-OH; N-terminus and C-terminus assumed)	0.56 ± 0.03 mM	
YDPAP [YDPAP, reference compound]	1.64 ± 0.03 mM	
N[C@@H](Cc1ccccc1)C(=O)N[C@@H](CO)C(=O)N1CCC[C@H]1C(=O)O [FSP] (H-Phe-Ser-Pro-OH; N-terminus and C-terminus assumed)	2.3 ± 0.13 mM	
N[C@@H](Cc1ccc(O)cc1)C(=O)N[C@@H](CO)C(=O)N[C@@H](Cc1ccccc1)C(=O)O [YSF] (H-Tyr-Ser-Phe-OH; N-terminus and C-terminus assumed)	1.08 ± 0.12 mM	
YDPAPR [YDPAPR]		Inhibition (% ± S.E.M.) of trypsin biosynthesis ([1]; 0.25 μg/injection): 11 ± 1%; Inhibition (% ± S.E.M.) of trypsin biosynthesis ([1]; 0.5 μg/injection): 14 ± 1%; Inhibition (% ± S.E.M.) of trypsin biosynthesis ([1]; 1 μg/injection): 31.5 ± 2%; Inhibition (% ± S.E.M.) of trypsin biosynthesis ([1]; 10 μg/injection): 53 ± 25%; LC50 [2]: 0.24 ± 0.02 mM
N[C@@H](Cc1ccc(O)cc1)C(=O)N[C@H](CC(=O)O)C(=O)N1CCC[C@H]1C(=O)O [Y(D)DP] (H-Tyr-[dD]-Pro-OH; N-terminus and C-terminus assumed)	0.28 ± 0.01 mM	
N[C@@H](Cc1ccc(O)cc1)C(=O)N[C@@H](CC(=O)O)C(=O)NCC(=O)O [YDG] (H-Tyr-Asp-Gly-OH; N-terminus and C-terminus assumed)	0.95 ± 0.11 mM	
YDPAL [YDPAL]	0.52 ± 0.03 mM	
N[C@@H](Cc1ccccc1)C(=O)N[C@@H](CC(=O)O)C(=O)N1CCC[C@H]1C(=O)O [FDP] (H-Phe-Asp-Pro-OH; N-terminus and C-terminus assumed)	1.98 ± 0.6 mM	
N[C@@H](Cc1ccc(O)cc1)C(=O)N[C@@H](CC(=O)O)C(=O)N1CCC[C@H]1C(=O)O [YDP] (H-Tyr-Asp-Pro-OH; N-terminus and C-terminus assumed)	2.3 ± 0.4 mM	
C[C@H](N)C(=O)N1CCC[C@H]1C(=O)N[C@@H](C)C(=O)O [APA] (H-Ala-Pro-Ala-OH; N-terminus and C-terminus assumed)	1.0 ± 0.07 mM	
C[C@H](NC(=O)[C@@H]1CCCN1C(=O)[C@@H](N)CC(=O)O)C(=O)N[C@@H](CCCNC(=N)N)C(=O)O [DPAR] (H-DPAR-OH)		Inhibition (% ± S.E.M.) of trypsin biosynthesis ([1]; 1 μg/injection): 17 ± 2%; Inhibition (% ± S.E.M.) of trypsin biosynthesis ([1]; 10 μg/injection): 100%; LC50 [2]: 0.46 ± 0.014 mM
FDPAP [FDPAP]	0.37 ± 0.15 mM	
YDPAPPPPPPR [YDPAP6R]		LC50 [2]: > 71.6 mM
N=C(N)NCCC[C@H](NC(=O)[C@@H]1CCCN1C(=O)[C@H](CC(=O)O)NC(=O)[C@@H](N)Cc1ccc(O)cc1)C(=O)O [YDPR] (H-YDPR-OH; N-terminus and C-terminus assumed)		LC50 [2]: 0.24 ± 0.026 mM
YDPFP [YDPFP]	1.7 ± 0.4 mM	
N[C@@H](Cc1ccc(O)cc1)C(=O)N[C@@H](CC(=O)O)C(=O)O [YD] (H-Tyr-Asp-OH; N-terminus and C-terminus assumed)	1.24 ± 0.06 mM	
MPDYPPPPP [MPDYP5]	>3.0 mM	
YDPAA [YDPAA]	1.6 ± 0.13 mM	

Molecule	LD50 mM ± S.E.M. [3]	further results
N[C@@H](CC(=O)O)C(=O)N[C@@H](Cc1ccc(O)cc1)C(=O)O [DY] (H-Asp-Tyr-OH; N-terminus and C-terminus assumed)	3.0 ± 0.8 mM	
YNPAP [YNPAP]	0.55 ± 0.03 mM	
YDLAP [YDLAP]	0.6 ± 0.05 mM	
YDPGP [YDPGP]	1.1 ± 0.18 mM	
ADPAP [ADPAP]	2.0 ± 0.36 mM	
YDPAFR [YDPAFR]		Inhibition (% ± S.E.M.) of trypsin biosynthesis ([1]; 10 μg/injection): 0 ± 0%; LC50 [2]: 0.15 ± 0.023 mM
YFPAP [YFPAP]	0.64 ± 0.03 mM	
C[C@H](N)C(=O)N[C@@H](CC(=O)O)C(=O)N1CCC[C@H]1C(=O)O [ADP] (H-Ala-Asp-Pro-OH; N-terminus and C-terminus assumed)	>6.6 mM	
C[C@H](NC(=O)[C@H](C)NC(=O)[C@@H]1CCCN1)C(=O)O [PAA] (H-Pro-Ala-Ala-OH; N-terminus and C-terminus assumed)	2.4 ± 0.34 mM	
YSPAP [YSPAP]	1.4 ± 0.03 mM	
C[C@H](N)C(=O)N[C@@H](C)C(=O)N1CCC[C@H]1C(=O)O [AAP] (H-Ala-Ala-Pro-OH; N-terminus and C-terminus assumed)	1.08 ± 0.07 mM	
C[C@H](NC(=O)[C@@H](N)Cc1ccccc1)C(=O)N1CCC[C@H]1C(=O)O [FAP] (H-Phe-Ala-Pro-OH; N-terminus and C-terminus assumed)	3.8 ± 0.23 mM	
N[C@@H](CC(=O)O)C(=O)N[C@@H](Cc1ccc(O)cc1)C(=O)N1CCC[C@H]1C(=O)O [DYP] (H-Asp-Tyr-Pro-OH; N-terminus and C-terminus assumed)	1.27 ± 0.17 mM	
C[C@H](NC(=O)[C@H](C)NC(=O)[C@@H](N)CC(=O)O)C(=O)O [DAA] (H-Asp-Ala-Ala-OH; N-terminus and C-terminus assumed)	0.91 ± 0.06 mM	
YDPAF [YDPAF]	0.33 ± 0.2 mM	
N[C@H](Cc1ccc(O)cc1)C(=O)N[C@@H](CC(=O)O)C(=O)N1CCC[C@H]1C(=O)O [(D)YDP] (H-[dY]-Asp-Pro-OH; N-terminus and C-terminus assumed)	0.51 ± 0.05 mM	
YDFAP [YDFAP]	0.74 ± 0.13 mM	
C[C@H](NC(=O)[C@@H]1CCCN1C(=O)[C@@H](N)CC(=O)O)C(=O)O [DPA] (H-Asp-Pro-Ala-OH)	0.4 ± 0.03 mM	
C[C@H](NC(=O)[C@@H]1CCCN1)C(=O)N1CCC[C@H]1C(=O)O [PAP] (H-Pro-Ala-Pro-OH; N-terminus and C-terminus assumed)	3.17 ± 0.14 mM	
C[C@H](NC(=O)[C@H](CC(=O)O)NC(=O)[C@@H](N)Cc1ccc(O)cc1)C(=O)O [YDA] (H-Tyr-Asp-Ala-OH; N-terminus and C-terminus assumed)	1.6 ± 0.13 mM	
YDAAP [YDAAP]	1.0 ± 0.18 mM	
DPARDPARDPARDPAR [(DPAR)4]		Inhibition (% ± S.E.M.) of trypsin biosynthesis ([1]; 0.5 μg/injection): 3 ± 0.3%; Inhibition (% ± S.E.M.) of trypsin biosynthesis ([1]; 1 μg/injection): 35 ± 7%; Inhibition (% ± S.E.M.) of trypsin biosynthesis ([1]; 10 μg/injection): 58 ± 36%; LC50 [2]: 0.048 ± 0.002 mM
C[C@H](NC(=O)[C@@H]1CCCN1C(=O)[C@@H](CC(=O)O)NC(=O)[C@@H](N)Cc1ccc(O)cc1)C(=O)N1CCC[C@H]1C(=O)O [Y(D)DPAP] (H-Y[dD]PAP-OH; N-terminus and C-terminus assumed)	1.2 ± 0.3 mM	
YDPAPPPPPP [YDPAP6, reference compound]	0.2 ± 0.02 mM	Inhibition (% ± S.E.M.) of trypsin biosynthesis ([1]; 0.25 μg/injection): 19.5 ± 0.7%; Inhibition (% ± S.E.M.) of trypsin biosynthesis ([1]; 0.5 μg/injection): 11 ± 1%; Inhibition (% ± S.E.M.) of trypsin biosynthesis ([1]; 1 μg/injection): 25 ± 2%; Inhibition (% ± S.E.M.) of trypsin biosynthesis ([1]; 10 μg/injection): 56%; LC50 [2]: 0.2 ± 0.02 mM
